According to ChEMBL document CHEMBL1687767, “New antiseptic peptides to protect against endotoxin-mediated shock” (Antimicrob Agents Chemother, 2010):
Converted amounts (≈) assume the structure as drawn. The source made the active and inactive calls. The calls are words filed in the database; no cut-off is given here. Residues, ends and D or L forms follow the SMILES beside them.

Assays:
Escherichia coli = assay: Antimicrobial activity against Escherichia coli ATCC 25922 by broth microdilution method; type: functional
[1] = system: Bordetella bronchiseptica; assay: Antimicrobial activity against Bordetella bronchiseptica CUN11844-99 by broth microdilution method; type: functional
Staphylococcus aureus [2] = assay: Antimicrobial activity against methicillin-resistant Staphylococcus aureus CUN 3792-99 by broth microdilution method; type: functional
Pseudomonas aeruginosa [3] = assay: Antimicrobial activity against Pseudomonas aeruginosa ATCC 27853 by broth microdilution method; type: functional
Homo sapiens = organism: Homo sapiens; assay: Antiinflammatory activity in human MNC assessed as inhibition of LPS-induced TNFalpha production at compound: LPS ratio of 100:1 weight percent by ELISA; type: functional
Mus musculus = assay: Antisepsis activity in Pseudomonas aeruginosa LPS-induced C57BL/6 mouse lethal endotoxin shock model assessed as mouse survival at 12.5 ug, ip administered immediately after LPS challenge; type: functional, organism-based
Staphylococcus aureus [4] = assay: Antimicrobial activity against Staphylococcus aureus ATCC 25923 by broth microdilution method; type: functional
[5] = system: Stenotrophomonas maltophilia; assay: Antimicrobial activity against […] Stenotrophomonas maltophilia CUN 3998-00 by broth microdilution method; type: functional
Pseudomonas aeruginosa [6] = assay: Antimicrobial activity against Pseudomonas aeruginosa CUN 4158-02 by broth microdilution method; type: functional
Staphylococcus aureus [7] = assay: Antimicrobial activity against methicillin-resistant Staphylococcus aureus ATCC 43300 by broth microdilution method; type: functional
Acinetobacter baumannii = assay: Antimicrobial activity against […] Acinetobacter baumannii ATCC 19606 by broth microdilution method; type: functional

| Compound | MIC (Escherichia coli) | MIC [1] | MIC (Staphylococcus aureus [2]) | MIC (Pseudomonas aeruginosa [3]) | inhibition (Homo sapiens) | Activity (Mus musculus) | MIC (Staphylococcus aureus [4]) | MIC [5] | MIC (Pseudomonas aeruginosa [6]) | MIC (Staphylococcus aureus [7]) | MIC (Acinetobacter baumannii) |
| --- | --- | --- | --- | --- | --- | --- | --- | --- | --- | --- | --- |
| N=C(N)NCCC[C@H](NC(=O)[C@H](Cc1ccc(O)cc1)NC(=O)[C@H](CCCCN)NC(=O)[C@H](CCCCN)NC(=O)[C@H](CS)NC(=O)CN)C(=O)N[C@@H](CCCNC(=N)N)C(=O)N[C@@H](Cc1ccccc1)C(=O)N[C@@H](CCCNC(=N)N)C(=O)N[C@@H](Cc1c[nH]c2ccccc12)C(=O)N[C@@H](CCCCN)C(=O)N[C@@H](Cc1ccccc1)C(=O)N[C@@H](CCCCN)C(=O)NCC(=O)N[C@@H](CCCCN)C(=O)N[C@@H](Cc1ccccc1)C(=O)N[C@@H](Cc1c[nH]c2ccccc12)C(=O)N[C@@H](Cc1ccccc1)C(=O)N[C@@H](Cc1c[nH]c2ccccc12)C(=O)N[C@@H](CS)C(=O)NCC(=O)O (H-GCKKYRRFRWKFKGKFWFWCG-OH) | 128 µg/mL (≈ 45.5 µM) | 32 µg/mL (≈ 11.4 µM) | 1020 µg/mL (≈ 364 µM) | 128 µg/mL (≈ 45.5 µM) | Active | Active | 128 µg/mL (≈ 45.5 µM) | 512 µg/mL (≈ 182 µM) | 256 µg/mL (≈ 90.9 µM) | 128 µg/mL (≈ 45.5 µM) | 64 µg/mL (≈ 22.7 µM) |
| CC(C)C[C@H](NC(=O)[C@H](CCCNC(=N)N)NC(=O)[C@H](CCCNC(=N)N)NC(=O)[C@H](Cc1ccccc1)NC(=O)[C@H](CCCCN)NC(=O)[C@H](CCCCN)NC(=O)[C@H](CS)NC(=O)CN)C(=O)N[C@@H](CCCCN)C(=O)N[C@@H](Cc1c[nH]c2ccccc12)C(=O)N[C@@H](CCCCN)C(=O)N[C@@H](Cc1ccc(O)cc1)C(=O)N[C@@H](CCCCN)C(=O)NCC(=O)N[C@@H](CCCCN)C(=O)N[C@@H](Cc1ccccc1)C(=O)N[C@@H](Cc1c[nH]c2ccccc12)C(=O)N[C@@H](Cc1ccccc1)C(=O)N[C@@H](Cc1c[nH]c2ccccc12)C(=O)N[C@@H](CS)C(=O)NCC(=O)O (H-GCKKFRRLKWKYKGKFWFWCG-OH) | 64 µg/mL (≈ 23.2 µM) | 4 µg/mL (≈ 1.45 µM) | 1020 µg/mL (≈ 372 µM) | 256 µg/mL (≈ 93 µM) | Active | – | 32 µg/mL (≈ 11.6 µM) | 512 µg/mL (≈ 186 µM) | 256 µg/mL (≈ 93 µM) | 64 µg/mL (≈ 23.2 µM) | 64 µg/mL (≈ 23.2 µM) |
| N=C(N)NCCC[C@H](NC(=O)CNC(=O)[C@H](CCCNC(=N)N)NC(=O)[C@H](Cc1ccccc1)NC(=O)[C@H](CCCNC(=N)N)NC(=O)[C@H](Cc1c[nH]c2ccccc12)NC(=O)[C@H](CCCCN)NC(=O)[C@H](Cc1ccccc1)NC(=O)[C@H](CCCCN)NC(=O)[C@H](CCCCN)NC(=O)[C@H](Cc1ccc(O)cc1)NC(=O)[C@H](CCCNC(=N)N)NC(=O)[C@H](CCCNC(=N)N)NC(=O)CN)C(=O)N[C@@H](Cc1ccccc1)C(=O)N[C@@H](Cc1c[nH]c2ccccc12)C(=O)N[C@@H](Cc1ccccc1)C(=O)N[C@@H](Cc1c[nH]c2ccccc12)C(=O)NCC(=O)O (H-GRRYKKFKWRFRGRFWFWG-OH) | 64 µg/mL (≈ 24 µM) | 16 µg/mL (≈ 6 µM) | – | – | – | – | 32 µg/mL (≈ 12 µM) | – | – | – | – |
| CC(C)C[C@H](NC(=O)[C@H](Cc1c[nH]c2ccccc12)NC(=O)[C@H](CC(C)C)NC(=O)[C@H](CCCCN)NC(=O)[C@H](CCC(N)=O)NC(=O)[C@H](CCCCN)NC(=O)[C@H](CS)NC(=O)[C@H](CCCCN)NC(=O)[C@H](CC(C)C)NC(=O)[C@H](CCCCN)NC(=O)[C@H](Cc1ccccc1)NC(=O)[C@H](CCCNC(=N)N)NC(=O)[C@H](CCCNC(=N)N)NC(=O)[C@H](Cc1ccccc1)NC(=O)[C@H](CCCCN)NC(=O)[C@H](CCCCN)NC(=O)[C@H](CS)NC(=O)CN)C(=O)N[C@@H](Cc1c[nH]c2ccccc12)C(=O)N[C@@H](CS)C(=O)NCC(=O)O (H-GCKKFRRFKLKCKQKLWLWCG-OH) | 1020 µg/mL (≈ 385 µM) | 16 µg/mL (≈ 6.02 µM) | 32 µg/mL (≈ 12 µM) | 256 µg/mL (≈ 96.3 µM) | – | – | 1020 µg/mL (≈ 385 µM) | 1020 µg/mL (≈ 385 µM) | 256 µg/mL (≈ 96.3 µM) | 64 µg/mL (≈ 24.1 µM) | 64 µg/mL (≈ 24.1 µM) |
| N=C(N)NCCC[C@H](NC(=O)CNC(=O)[C@H](CCCNC(=N)N)NC(=O)[C@H](Cc1ccc(O)cc1)NC(=O)[C@H](CCCNC(=N)N)NC(=O)[C@H](Cc1c[nH]c2ccccc12)NC(=O)[C@H](CCCCN)NC(=O)[C@H](CCCCN)NC(=O)[C@H](Cc1ccccc1)NC(=O)[C@H](CCCCN)NC(=O)[C@H](CCCCN)NC(=O)[C@H](Cc1ccccc1)NC(=O)[C@H](CCCNC(=N)N)NC(=O)[C@H](CCCNC(=N)N)NC(=O)[C@H](CS)NC(=O)CN)C(=O)N[C@@H](Cc1ccccc1)C(=O)N[C@@H](Cc1c[nH]c2ccccc12)C(=O)N[C@@H](Cc1ccccc1)C(=O)N[C@@H](Cc1c[nH]c2ccccc12)C(=O)N[C@@H](CS)C(=O)N[C@@H](Cc1ccccc1)C(=O)NCC(=O)O (H-GCRRFKKFKKWRYRGRFWFWCFG-OH) | 64 µg/mL (≈ 20.3 µM) | 32 µg/mL (≈ 10.2 µM) | 64 µg/mL (≈ 20.3 µM) | 128 µg/mL (≈ 40.7 µM) | – | – | 64 µg/mL (≈ 20.3 µM) | 64 µg/mL (≈ 20.3 µM) | 128 µg/mL (≈ 40.7 µM) | 32 µg/mL (≈ 10.2 µM) | 64 µg/mL (≈ 20.3 µM) |
